Test results reported in patent publication US8658566B2, “Composition and method for controlling plant diseases” (Sumitomo Chemical Company, Limited, priority 2009, dated 2014).

Tested on: Pythium damping-off pathogen (Pythium irregulare)
Experiment: Cucumber seed treatment test against Pythium damping-off (Test Example 1)
Assay type: in vivo
Conditions: cucumber (Sagamihanjiro) seed treatment, 20° C., 8 days
Procedure: A DMSO solution of the compound I and a DMSO solution of ethaboxam were respectively prepared. These solutions were mixed to prepare a DMSO solution containing predetermined concentrations of the compound I and ethaboxam. Ten (10) μL of the DMSO solution and 1 g of cucumber (Sagamihanjiro) seeds were mixed by shaking in a 15-ml conical tube and then allowed to stand overnight to prepare treated seeds. A plastic pot was filled with sandy soil and the treated seeds were sown on it and then covered with sandy soil which had been mixed with a bran culture of Pythium damping-off pathogen (Pythium irregulare). The sown seeds were watered and then cultured in a cultivation room at 20° C. for 8 days. The occurrence of Pythium damping-off diseases was checked and the incidence of disease was calculated by Equation 1.
For comparison, a DMSO solution containing a predetermined concentration of ethaboxam was prepared and subjected to the same test and then the incidence of disease was determined.
In order to calculate a control value, the same test was conducted in which the plants had been treated with none of the test compounds and the incidence of disease was determined.
The control value was calculated by the Equation 2 based on the incidence of disease thus determined. […]

CCNc1nc(CC)c(C(=O)NC(C#N)c2cccs2)s1 (centres unmarked) [Ethaboxam]
Control value (ethaboxam 2 g/100 kg seeds alone (compound I 0)): 43
Control value (ethaboxam 10 g/100 kg seeds alone (compound I 0)): 64
